According to patent publication US10023590B2, “Substituted pyridine compounds having herbicidal activity” (BASF SE, priority 2014, dated 2018):

Legend:
Format in all cases: in vivo
Echinocloa crus-galli = test: Greenhouse post-emergence herbicidal activity, ECHCG; details: Echinochloa crus-galli, ECHCG; for pest or weed control at 250 g/ha: 0.25 kg/ha
Text: (§1) The culture containers used were plastic flowerpots containing loamy sand with approximately 3.0% of humus as the substrate. The seeds of the test plants were sown separately for each species.
(§2) For the post-emergence treatment, the test plants were first grown to a height of 3 to 15 cm, depending on the plant habit, and only then treated with the active ingredients which had been suspended or emulsified in water. For this purpose, the test plants were either sown directly and grown in the same containers, or they were first grown separately as seedlings and transplanted into the test containers a few days prior to treatment.
(§3) Depending on the species, the plants were kept at 10-25° C. or 20-35° C., respectively.
(§4) The test period extended over 2 to 4 weeks. During this time, the plants were tended, and their response to the individual treatments was evaluated.
(§5) Evaluation was carried out using a scale from 0 to 100. 100 means no emergence of the plants, or complete destruction of at least the aerial moieties, and 0 means no damage, or normal course of growth. A good herbicidal activity is given at values of at least 70 and a very good herbicidal activity is given at values of at least 85.

Zea mays = test: Greenhouse post-emergence herbicidal activity on crop ZEAMX (corn, maize); parameters: key: 0 = no damage/normal growth, 100 = no emergence or complete destruction
Text: as §1, §2, §3, §4, §5

Amaranthus retroflexus = test: Greenhouse post-emergence herbicidal activity, AMARE; details: AMARE; for pest or weed control at 250 g/ha: 0.25 kg/ha
Text: as §1, §2, §3, §4, §5

Oryza sativa = test: Greenhouse post-emergence herbicidal activity on crop ORYSA (rice)
Text: as §1, §2, §3, §4, §5

Chenopodium album = test: Greenhouse post-emergence herbicidal activity, CHEAL; details: for pest or weed control at 250 g/ha: 0.25 kg/ha
Text: as §1, §2, §3, §4, §5

[1] = ZEAMX (corn, crop), 0.125 kg/ha, scale 0 to 100
[2] = ORYSA (rice, crop), 0.125 kg/ha, scale 0 to 100
[3] = ZEAMX (corn, crop), 0.031 kg/ha, scale 0 to 100
[4] = ZEAMX (corn, crop), 0.063 kg/ha, scale 0 to 100
[5] = ORYSA (rice, crop), 0.031 kg/ha, scale 0 to 100
[6] = ORYSA (rice, crop), 0.063 kg/ha, scale 0 to 100
[7] = ZEAMX (corn, crop), 0.25 kg/ha, scale 0 to 100
[8] = crop ZEAMX (corn, maize), application rate 0.031 kg/ha
[9] = crop ZEAMX (corn, maize), application rate 0.063 kg/ha
[10] = crop ZEAMX (corn, maize), application rate 0.125 kg/ha
[11] = crop ORYSA (rice), application rate 0.031 kg/ha
[12] = crop ORYSA (rice), application rate 0.063 kg/ha
[13] = crop ORYSA (rice), application rate 0.125 kg/ha

Structure (SMILES)	pest or weed control at 125 g/ha (Echinocloa crus-galli; 0.125 kg/ha, scale 0 to 100) [%]	pest or weed control at 250 g/ha (Echinocloa crus-galli; scale 0 to 100) [%]	Herbicidal activity (Zea mays; [1])	pest or weed control at 125 g/ha (Amaranthus retroflexus; 0.125 kg/ha, scale 0 to 100) [%]	pest or weed control at 250 g/ha (Amaranthus retroflexus; scale 0 to 100) [%]	Herbicidal activity (Oryza sativa; [2])	pest or weed control at 125 g/ha (Chenopodium album; 0.125 kg/ha, scale 0 to 100) [%]	pest or weed control at 250 g/ha (Chenopodium album; scale 0 to 100) [%]	pest or weed control at 31 g/ha (Echinocloa crus-galli; 0.031 kg/ha, scale 0 to 100) [%]	pest or weed control at 63 g/ha (Echinocloa crus-galli; 0.063 kg/ha, scale 0 to 100) [%]	Herbicidal activity (Zea mays; [3])	Herbicidal activity (Zea mays; [4])	pest or weed control at 31 g/ha (Amaranthus retroflexus; 0.031 kg/ha, scale 0 to 100) [%]	pest or weed control at 63 g/ha (Amaranthus retroflexus; 0.063 kg/ha, scale 0 to 100) [%]	Herbicidal activity (Oryza sativa; [5])	pest or weed control at 31 g/ha (Chenopodium album; 0.031 kg/ha, scale 0 to 100) [%]	pest or weed control at 63 g/ha (Chenopodium album; 0.063 kg/ha, scale 0 to 100) [%]	Herbicidal activity (Zea mays; [8])	Herbicidal activity (Zea mays; [9])	Herbicidal activity (Oryza sativa; [11])	other results
CS(=O)(=O)Nc1c(Cl)ccc(C2=C(O)c3ncccc3CS2(=O)=O)c1Cl [I-1, N-[2,6-dichloro-3-(8-hydroxy-6,6-dioxo-5H-thiopyrano[4,3-b]pyridin-7-yl)phenyl]methanesulfonamide]	70	80	0	75	80	0	80	95	–	–	–	–	–	–	–	–	–	–	–	–	Herbicidal activity (Oryza sativa; ORYSA (rice, crop), 0.25 kg/ha, scale 0 to 100): 0
CN(c1ccc(Cl)c(C2=C(O)c3ncccc3CS2(=O)=O)c1Cl)S(C)(=O)=O [I-4, N-[2,4-dichloro-3-(8-hydroxy-6,6-dioxo-5H-thiopyrano[4,3-b]pyridin-7-yl)phenyl]-N-methyl-methanesulfonamide]	98	100	55	98	98	50	100	100	98	90	0	20	90	90	25	85	95	–	–	–	Herbicidal activity (Oryza sativa; [6]): 35
CN(c1cccc(C2=C(O)c3ncccc3CS2(=O)=O)c1Cl)S(C)(=O)=O [I-15, N-[2-chloro-3-(8-hydroxy-6,6-dioxo-5H-thiopyrano[4,3-b]pyridin-7-yl)phenyl]-N-methyl-methanesulfonamide]	98	–	35	90	–	20	98	–	85	90	–	–	75	85	0	90	98	–	–	–	Herbicidal activity (Oryza sativa; [6]): 0
CCS(=O)(=O)N(C)c1c(Cl)ccc(C2=C(O)c3ncccc3CS2(=O)=O)c1Cl [I-18, N-[2,6-dichloro-3-(8-hydroxy-6,6-dioxo-5H-thiopyrano[4,3-b]pyridin-7-yl)phenyl]-N-methyl-ethanesulfonamide]	100	100	25	100	100	–	100	100	98	100	0	25	100	100	30	100	100	–	–	–	Herbicidal activity (Zea mays; [7]): 35
CN(c1c(Cl)ccc(C2=C(O)c3ncccc3CS2(=O)=O)c1Cl)S(=O)(=O)CC1CC1 [I-20, 1-cyclopropyl-N-[2,6-dichloro-3-(8-hydroxy-6,6-dioxo-5H-thiopyrano[4,3-b]pyridin-7-yl)phenyl]-N-methyl-methanesulfonamide]	100	–	0	100	–	–	100	–	100	100	0	0	90	90	–	100	100	–	–	–	–
CS(=O)(=O)N(c1c(Cl)ccc(C2=C(O)c3ncccc3CS2(=O)=O)c1Cl)C1CC1 [I-24, N-cyclopropyl-N-[2,6-dichloro-3-(8-hydroxy-6,6-dioxo-5H-thiopyrano[4,3-b]pyridin-7-yl)phenyl]methanesulfonamide]	90	95	15	85	90	20	90	98	80	85	0	0	70	75	0	80	85	–	–	–	Herbicidal activity (Zea mays; [7]): 15; Herbicidal activity (Oryza sativa; [6]): 15
CN(c1cccc(C2=C(O)c3ncccc3CS2(=O)=O)c1S(C)(=O)=O)S(C)(=O)=O [I-33, N-[3-(8-hydroxy-6,6-dioxo-5H-thiopyrano[4,3-b]pyridin-7-yl)-2-methylsulfonyl-phenyl]-N-methyl-methanesulfonamide]	–	–	–	–	–	–	–	–	–	–	–	–	–	–	–	–	–	0	0	0	Herbicidal activity (Zea mays; [10]): 0; pest or weed control at 63 g/ha (Amaranthus retroflexus; application rate 0.063 kg/ha): 85%; pest or weed control at 125 g/ha (Amaranthus retroflexus; application rate 0.125 kg/ha): 90%; Herbicidal activity (Oryza sativa; [12]): 20; Herbicidal activity (Oryza sativa; [13]): 10; pest or weed control at 31 g/ha (Chenopodium album; application rate 0.031 kg/ha): 85%; pest or weed control at 63 g/ha (Chenopodium album; application rate 0.063 kg/ha): 98%; pest or weed control at 125 g/ha (Chenopodium album; application rate 0.125 kg/ha): 90%
CN(c1cccc(C2=C(O)c3ncccc3C(C)(C)S2(=O)=O)c1S(C)(=O)=O)S(C)(=O)=O [I-34, N-[3-(8-hydroxy-5,5-dimethyl-6,6-dioxo-thiopyrano[4,3-b]pyridin-7-yl)-2-methylsulfonyl-phenyl]-N-methyl-methanesulfonamide]	–	–	–	–	–	–	–	–	–	–	–	–	–	–	–	–	–	0	0	0	pest or weed control at 125 g/ha (Echinocloa crus-galli; application rate 0.125 kg/ha): 70%; Herbicidal activity (Zea mays; [10]): 15; pest or weed control at 31 g/ha (Amaranthus retroflexus; application rate 0.031 kg/ha): 90%; pest or weed control at 63 g/ha (Amaranthus retroflexus; application rate 0.063 kg/ha): 95%; pest or weed control at 125 g/ha (Amaranthus retroflexus; application rate 0.125 kg/ha): 98%; Herbicidal activity (Oryza sativa; [12]): 0; Herbicidal activity (Oryza sativa; [13]): 0; pest or weed control at 31 g/ha (Chenopodium album; application rate 0.031 kg/ha): 95%; pest or weed control at 63 g/ha (Chenopodium album; application rate 0.063 kg/ha): 98%; pest or weed control at 125 g/ha (Chenopodium album; application rate 0.125 kg/ha): 100%
CN(c1cccc(C2=C(O)c3ncccc3CS2(=O)=O)c1C(F)(F)F)S(C)(=O)=O [I-35, N-[3-(8-hydroxy-6,6-dioxo-5H-thiopyrano[4,3-b]pyridin-7-yl)-2-(trifluoromethyl)phenyl]-N-methyl-methanesulfonamide]	–	–	–	–	–	–	–	–	–	–	–	–	–	–	–	–	–	0	0	0	pest or weed control at 31 g/ha (Echinocloa crus-galli; application rate 0.031 kg/ha): 80%; pest or weed control at 63 g/ha (Echinocloa crus-galli; application rate 0.063 kg/ha): 90%; pest or weed control at 125 g/ha (Echinocloa crus-galli; application rate 0.125 kg/ha): 90%; Herbicidal activity (Zea mays; [10]): 0; pest or weed control at 63 g/ha (Amaranthus retroflexus; application rate 0.063 kg/ha): 75%; pest or weed control at 125 g/ha (Amaranthus retroflexus; application rate 0.125 kg/ha): 100%; Herbicidal activity (Oryza sativa; [12]): 15; Herbicidal activity (Oryza sativa; [13]): 25; pest or weed control at 31 g/ha (Chenopodium album; application rate 0.031 kg/ha): 95%; pest or weed control at 63 g/ha (Chenopodium album; application rate 0.063 kg/ha): 100%; pest or weed control at 125 g/ha (Chenopodium album; application rate 0.125 kg/ha): 100%
CN(c1c(Cl)ccc(C2=C(O)c3ncc(F)cc3CS2(=O)=O)c1Cl)S(C)(=O)=O [I-37, N-[2,6-dichloro-3-(3-fluoro-8-hydroxy-6,6-dioxo-5H-thiopyrano[4,3-b]pyridin-7-yl)phenyl]-N-methyl-methanesulfonamide]	–	–	–	–	–	–	–	–	–	–	–	–	–	–	–	–	–	0	0	0	pest or weed control at 31 g/ha (Echinocloa crus-galli; application rate 0.031 kg/ha): 90%; pest or weed control at 63 g/ha (Echinocloa crus-galli; application rate 0.063 kg/ha): 90%; pest or weed control at 125 g/ha (Echinocloa crus-galli; application rate 0.125 kg/ha): 95%; Herbicidal activity (Oryza sativa; [12]): 0; Herbicidal activity (Oryza sativa; [13]): 0; pest or weed control at 31 g/ha (Chenopodium album; application rate 0.031 kg/ha): 90%; pest or weed control at 63 g/ha (Chenopodium album; application rate 0.063 kg/ha): 90%; pest or weed control at 125 g/ha (Chenopodium album; application rate 0.125 kg/ha): 90%
